Laboratory results reported in patent US4605661A, “Aromastase inhibiting α,α-diarylimidazole-4(5)-propionitriles, α,α-diarylimidazole-4(5)-propionamides, and 4(5)-(2,2-diarylethyl)imidazoles” (Eli Lilly and Company, priority 1984, dated 1986).
Where a name gives a salt, the structure may show the parent alone. Read-outs that look alike come from different tables or passages of the source.

Legend:
aromatase = target: T1, aromatase (Rattus norvegicus, UniProt P22443); assay: Aromatase inhibition in the rat ovarian microsome assay; assay type: biochemical
T1 construct: ovarian microsomes are obtained from rats treated with pregnant mares serum gonadotropin; from tissue; host or cells: ovarian microsomes from rats treated with pregnant mares serum gonadotropin
T1 sequence (P22443 1-508): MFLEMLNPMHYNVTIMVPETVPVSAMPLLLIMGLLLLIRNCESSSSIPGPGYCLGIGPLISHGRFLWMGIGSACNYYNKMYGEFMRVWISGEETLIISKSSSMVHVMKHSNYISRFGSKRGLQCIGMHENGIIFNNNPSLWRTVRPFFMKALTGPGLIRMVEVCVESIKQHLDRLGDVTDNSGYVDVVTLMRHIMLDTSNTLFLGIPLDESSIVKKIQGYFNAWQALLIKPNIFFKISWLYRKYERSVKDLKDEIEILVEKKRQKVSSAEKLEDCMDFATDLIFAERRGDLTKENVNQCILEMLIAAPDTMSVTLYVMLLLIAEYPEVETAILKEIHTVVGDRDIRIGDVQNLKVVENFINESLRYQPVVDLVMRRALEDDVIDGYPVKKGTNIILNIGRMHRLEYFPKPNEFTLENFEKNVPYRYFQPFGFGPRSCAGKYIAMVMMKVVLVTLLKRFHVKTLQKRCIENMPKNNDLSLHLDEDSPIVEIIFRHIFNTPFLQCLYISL
Method: In this test system, ovarian microsomes are obtained from rats treated with pregnant mares serum gonadotropin. Test compounds are added to reaction vials containing 0.1 μM 4-androstene-3,17-dione, 100,000 dpm 1,2[^3 H]-androstenedione, the microsomes and a NADPH generating system. The concentrations of the inhibitors tested ranged between 0.005 and 10 μM.

aromatization [1] = assay: Estrogen synthesis inhibition in rats: ovarian steroid concentrations; assay type: in vivo, rat (immature female Wistar); conditions: ovary, 7 days
Method: (§1) Immature female Wistar rats (45-55 grams) were divided into control and test groups of 4-8 animals each. Test compounds were administered for seven days as a component of the diet. Control animals received diet without the test compound. Beginning on the fourth day of the test, all animals treated with the test compound and one half of the control animals were given a subcutaneous injection of 1.0 mg of testosterone propionate in corn oil. The remaining control animals received only an equivalent volume of corn oil. On the seventh day of the test, rats treated with testosterone propionate were injected subcutaneously with 100 μCi of [^3 H]-testosterone in 50 μl of 3:1 (v/v) saline-ethanol.
Ovaries from rats treated with [^3 H]-testosterone were excised, cleaned of extraneous tissue, and homogenized in 2.5 ml of a 1.0 mM potassium phosphate buffer containing 3.0 mM MgCl2.6H2 O, 320 mM sucrose, and 0.25% Triton X-100 (polyethylene glycol p-isooctyl phenyl ether, Rohm and Hass) at pH 6.5. The ovarian steroids were extracted with 1.5 ml of 9:1 (v/v) toluene/ethanol to which had been added 25 to 100 mcg each of unlabelled estradiol, estriol, and estrone, and approximately 1000 dpm of [^14 C]-estradiol. The samples were vortexed, centrifuged at 500×g for 10 minutes, and the organic phase was transferred to a conical vial. Two additional extractions were performed on the residue in the same way. The pooled organic extracts were evaporated for subsequent thin-layer chromatography.
Ovarian proteins were precipitated by the addition of 5.0 ml of ethanol to the remaining aqueous phase. After an overnight incubation at 4° C., the samples were centrifuged at 1500×g for 10 minutes. The supernatant was discarded and the pellet was dissolved in 0.3N potassium hydroxide. Protein was determined according to the method of Bradford, Analytical Biochemistry, 72, 248 (1976).
The organic residue from each above extraction was redissolved in 9:1 (v/v) dichloromethane/methanol. The solution of each sample was applied to separate silica gel thin layer chromatography plates which contained a fluorescent indicator. The plates were developed in the first dimension with 160:38:1.5:0.5 (v/v/v/v) dichloromethane/ethyl acetate/methanol/acetic acid to within 3 cm of the top of the plate. After air-drying, the plate was developed in the second dimension with 180:19:1 (v/v/v) dichloromethane/methanol/ammonium hydroxide. The plate was air-dried and viewed under 254 nm UV light.
The visible spots were marked and the plates were sprayed with primulin (0.001% in 4:1 v/v acetone/water) according to the method of Wright, J. Chromatography, 59, 220 (1971) which allowed for the identification of additional steroids under 365 nm UV light. The spots were scraped from the plate using a glass wool plugged Pasteur pipet attached to a vacuum line. The steroids were eluted directly into scintillation vials by the addition of 0.2 ml of dichloromethane followed by two washes each of 2.0 ml of methanol. The organic solvent was evaporated and 10.0 ml of scintillation fluid (Beckman Ready Solv-NA) was added to the vials. Samples were analyzed by liquid scintillation spectrometry. Corrections were made based on the recoveries of the [^14 C]-steroid. Steroid concentrations are expressed as femtomoles per milligram protein.

[2] = test system: DMBA-induced mammary tumors; assay: DMBA-induced mammary tumor inhibition; assay type: in vivo, rat (female Sprague-Dawley); conditions: Test I, 20 mg/kg, once daily by gavage in corn oil
Method: Mammary tumors were produced in female Sprague-Dawley rats which were 50-60 days old by the gavage administration of 20 mg of 7,12-dimethylbenz[α]anthracene (DMBA). About six weeks after DMBA administration, the mammary glands were palpated at weekly intervals for the appearance of tumors. Whenever one or more tumors appeared and were measurable in an animal, that animal was selected for experimentation. […] Each control and test group contained 8 animals. The test compound was administered in corn oil and administered once daily by gavage.
Every experiment included a group of control rats having tumors that were given corn oil vehicle by gavage. […] The area of each tumor was calculated by multiplying the shortest and longest diameters of the tumor. The treatment and measurement of animals continued for five weeks at which time the final areas of the tumors were determined. The change in the mean tumor area was determined, and the means change was analyzed for its significance using Dunnett's t-test.

aromatization [3] = assay: Estrogen synthesis inhibition in rats: uterine weight; assay type: in vivo, rat (immature female Wistar); conditions: 7 days, testosterone propionate treated
Method: as §1
After two hours, the animals were killed by decapitation. Uteri were isolated, trimmed of extraneous connective tissue, and weighed. […] In the control animals treated with testosterone propionate, estrogens produced by aromatization stimulated the uterus resulting in an increase in weight.

breast cancer = conditions: Cancer Research, Vol. 42, Suppl. 8:3261s (1982); cited from earlier work
[4] = rat ovarian microsomes, substrate (androstenedione) 0.1 μM, read-out: EC50 (concentration required to achieve 50% inhibition of aromatase activity)
[5] = Test I, 30 ppm in feed (approx. 3 mg/kg/day)
[6] = Test I, 300 ppm in feed (approx. 30 mg/kg/day)
[7] = Test II, 200 ppm in feed (approx. 20 mg/kg/day)

## c1ccc(C(Cc2c[nH]cn2)c2ccccc2)cc1 [4(5)-(2,2-diphenylethyl)imidazole, 4(5)-(2,2-Diphenylethyl)imidazole]
aromatase
  EC50: 0.094 µM

## N#CC(Cc1c[nH]cn1)(c1ccccc1)c1ccccc1 [α,α-diphenylimidazole-4(5)-propionitrile, maleic acid salt]
aromatase; [4]
  EC50: 0.165 µM

## N#CC(Cc1c[nH]cn1)(c1ccc(Cl)cc1)c1ccc(Cl)cc1 [α,α-bis(4-chlorophenyl)-imidazole-4(5)-propionitrile, maleic acid salt]
Aromatization [1]; [5]
  Mean Steroid Concentration, estradiol: 1.36 femtomoles per milligram of protein
  Mean Steroid Concentration, estriol: 0.72 femtomoles per milligram of protein
  Mean Steroid Concentration, estrone: 0.11 femtomoles per milligram of protein
Aromatization [1]; [6]
  Mean Steroid Concentration, estradiol: 1.06 femtomoles per milligram of protein
  Mean Steroid Concentration, estriol: 0.23 femtomoles per milligram of protein
Aromatization [1]; Test I, 300 ppm in feed (approx. 30 mg/kg/day), + p < 0.05 vs testosterone-treated control
  Mean Steroid Concentration, estrone: 0.00 femtomoles per milligram of protein
[2]; 5 weeks, control 78.3 to 980.8, + p < 0.05 vs control
  Mean Tumor Area, Finish: 389.7 mm^2
[2]; start of test (baseline)
  Mean Tumor Area, Start: 67.0 mm^2
aromatase; [4]
  EC50: 0.062 µM
Aromatization [3]; Test I, 30 ppm in feed (approx. 3 mg/kg/day), 4 animals
  Mean Uterine Weight: 166.0 mg
Aromatization [3]; Test I, 300 ppm in feed (approx. 30 mg/kg/day), 5 animals, + p < 0.05 vs testosterone-treated control
  Mean Uterine Weight: 141.6 mg

## C[C@]12C=CC(=O)C=C1CC[C@@H]1[C@@H]2CC[C@]2(C)OC(=O)CC[C@@H]12 [testolactone]
Breast cancer
  effect in treatment of breast cancer: beneficial effect

## N#CC(Cc1c[nH]cn1)(c1ccccc1)c1cccc(Cl)c1 (stereo not drawn) [α-(3-chlorophenyl)-α-phenyl-imidazole-4(5)-propionitrile hydrochloride]
aromatase; [4]
  EC50: 0.078 µM

## N#CC(Cc1c[nH]cn1)(c1ccccc1)c1ccc(C(F)(F)F)cc1 (stereo not drawn) [α-phenyl-α-(4-trifluoromethylphenyl)-1H--imidazole-4(5)-propionitrile]
Aromatization [1]; [7]
  Mean Steroid Concentration, estradiol: 1.01 femtomoles per milligram of protein
  Mean Steroid Concentration, estriol: 0.31 femtomoles per milligram of protein
  Mean Steroid Concentration, estrone: 0.00 femtomoles per milligram of protein
aromatase; [4]
  EC50: 0.073 µM
Aromatization [3]; Test II, 200 ppm in feed (approx. 20 mg/kg/day), 5 animals, + p < 0.05 vs testosterone-treated control
  Mean Uterine Weight: 142.2 mg

## NC(=O)C(Cc1c[nH]cn1)(c1ccccc1)c1ccccc1 [α,α-Diphenylimidazole-4-propionamide hydrochloride]
aromatase; [4]
  EC50: 0.118 µM

## N#CC(Cc1c[nH]cn1)(c1ccccc1)c1ccc(Cl)cc1 (stereo not drawn) [α-(4-chlorophenyl)-α-phenyl-imidazole-4(5)-propionitrile, maleic acid salt]
aromatase
  EC50: 0.072 µM

## N#CC(Cc1c[nH]cn1)(c1ccccc1)c1cccnc1 (stereo not drawn) [α-[1-imidazol-4(5)-ylmethyl]-α-phenyl-3-pyridineacetonitrile dihydrochloride]
aromatase; [4]
  EC50: 0.56 µM

## COc1ccc(C(C#N)(Cc2c[nH]cn2)c2ccccc2)cc1 (stereo not drawn) [α-(4-methoxyphenyl)-α-phenyl-imidazole-4(5)-propionitrile, maleic acid salt]
aromatase; [4]
  EC50: 0.18 µM

## NC(=O)C(Cc1c[nH]cn1)(c1ccc(Cl)cc1)c1ccc(Cl)cc1 [α,α-Bis(4-chlorophenyl)-1H-imidazole-4(5)-propionamide hydrochloride]
aromatase; [4]
  EC50: < 0.05 µM

## CCC1(c2ccc(N)cc2)CCC(=O)NC1=O (centres unmarked) [aminoglutethimide]
Breast cancer
  effect in treatment of breast cancer: beneficial effect
